Laboratory results taken from PubChem BioAssay (NCI).
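Method: 48-hour compound exposure of cells in 96-well plates, five concentrations, linear interpolation of endpoints. GI50 = concentration required for 50% inhibition of growth. TGI marks complete inhibition of growth.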

What was measured:
Assay in all cases: inhibition of tumour cell growth, NCI panel, 48 h
BT-549 breast = tested on: BT-549 breast
EKVX NSCLC = tested on: EKVX NSCLC
LOX IMVI melanoma = tested on: LOX IMVI melanoma
NCI-H460 lung = tested on: NCI-H460 lung
SF-295 CNS = tested on: SF-295 CNS
SK-MEL-28 melanoma = tested on: SK-MEL-28 melanoma
TK-10 renal = tested on: TK-10 renal
U251 CNS = tested on: U251 CNS
UACC-62 melanoma = tested on: UACC-62 melanoma
UO-31 renal = tested on: UO-31 renal

SMILES | GI50 (BT-549 breast) [µM] | TGI (BT-549 breast) [µM] | GI50 (EKVX NSCLC) [µM] | TGI (EKVX NSCLC) [µM] | GI50 (LOX IMVI melanoma) [µM] | TGI (LOX IMVI melanoma) [µM] | GI50 (NCI-H460 lung) [µM] | TGI (NCI-H460 lung) [µM] | GI50 (SF-295 CNS) [µM] | TGI (SF-295 CNS) [µM] | GI50 (SK-MEL-28 melanoma) [µM] | TGI (SK-MEL-28 melanoma) [µM] | GI50 (TK-10 renal) [µM] | TGI (TK-10 renal) [µM] | GI50 (U251 CNS) [µM] | TGI (U251 CNS) [µM] | GI50 (UACC-62 melanoma) [µM] | TGI (UACC-62 melanoma) [µM] | GI50 (UO-31 renal) [µM] | TGI (UO-31 renal) [µM]
COC(=O)c1cc(NC(=O)CN(CCN(CC(=O)O)CC(=O)Nc2ccc(O)c(C(=O)OC)c2)CC(=O)O)ccc1O | 52.1 | > 100 | > 100 | > 100 | 38.5 | > 100 | 28.3 | > 100 | 25.8 | > 100 | > 100 | > 100 | > 100 | > 100 | 43.8 | > 100 | 48.2 | > 100 | 42.7 | > 100
CC#CC(=O)N[C@H]1CCCN(c2c(F)cc(C(N)=O)c3[nH]c(C)c(C)c23)C1 | 14.9 | 30.3 | 18.3 | 45.9 | 14.9 | 28.1 | 18.1 | 33.4 | 27.3 | 74.5 | 17.4 | 35.6 | 24.5 | 95.7 | 17.3 | 36.3 | 14.4 | 28.5 | 15.9 | > 100
Cc1nn(-c2ccccc2)c(C)c1/C=N/N1CCN(Cc2ccccc2)CC1 | 48.2 | > 100 | > 100 | > 100 | 44 | > 100 | 33.5 | > 100 | > 100 | > 100 | 80.5 | > 100 | 28.7 | > 100 | 67.5 | > 100 | 33.8 | > 100 | 66.4 | > 100
CC(=O)Nc1ccc(S(=O)(=O)c2ccc(NC(C)=O)cc2)cc1 | > 100 | > 100 | 64 | > 100 | > 100 | > 100 | > 100 | > 100 |  |  | > 100 | > 100 | > 100 | > 100 |  |  | > 100 | > 100 | > 100 | > 100
O=[N+]([O-])c1ccc(NN=C2c3ccccc3Cc3ccccc32)c([N+](=O)[O-])c1 |  | > 100 |  | > 100 |  | > 100 |  | > 100 |  | > 100 |  | > 100 |  | > 100 |  | > 100 |  | > 100 |  | > 100
O=C1C(Cl)=C(Nc2ccccn2)C(=O)c2ccccc21 | 2.09 | 4.58 | 17.2 | 49.4 | 2.04 | 5.29 | 3.25 | 11.4 |  |  | 2.09 | 3.92 | 12.9 | 25.5 | 3.24 | 11 | 2.1 | 3.95 | 2.27 | 7.2
Cc1cccc2c1NC(=O)C2(c1ccc(O)cc1)c1ccc(O)cc1 | < 0.01 |  | 16.4 | 98.9 | 6.76 | 25.6 | 18.5 | 40.8 | 12.6 | 38.1 | 16.4 | 46.5 | 0.0206 | 39.1 | 18.9 | 48.9 | 11.4 | 35.1 | 13.1 | 78.8
C=CCCC(O)c1ccc(CCCCCCCCCCC)o1 (centres undefined) | 16.7 | 30.7 | 18.2 | 32.9 | 31.8 | 47.2 | 28.9 | > 100 | 14.2 | 30.4 | 14.9 | 29.6 | 15.8 | 31.9 | 17.5 | 31.5 | 12.3 | 25 | 20.9 | 36.1
CCCC(=O)Nc1ncnc2c1ncn2C1OC2COP(=O)(O)OC2C1OC(=O)CCC (centres undefined) |  | > 1000 | > 1000 | > 1000 | > 1000 | > 1000 |  |  | > 1000 | > 1000 | > 1000 | > 1000 |  | > 1000 | > 1000 | > 1000 | > 1000 | > 1000 |  | > 1000
CNc1ccc(C(=O)CC(O)CCC(C)C2OC(=O)CC(O)CC(=O)CC(O)CC(O)CC(O)CC(O)CC3(O)CC(O)C(C(=O)NCCc4ccccn4)C(CC(OC4OC(C)C(O)C(N)C4O)/C=C/C=C/C=C/C=C\C=C/C=C/C=C/C2C)O3)cc1 (centres undefined) | 1.27 | > 50 | 0.134 | 0.49 | 2.11 | > 50 | 0.238 | > 17.8 | 1.05 | 11.4 | 0.161 | > 50 | 0.128 | 0.499 | 2.11 | > 40.3 | 1.54 | > 34.2 | 0.551 | 
C(=C\c1nc2ccccc2s1)/c1ccc(N2CCOCC2)s1 | 34.6 | > 100 | 30.1 | > 100 | 38.4 | > 100 | 51.3 | > 100 | 24.2 | 95.4 | > 100 | > 100 | 48.4 | > 100 | 44.8 | > 100 | 7.94 | > 100 | 80.5 | > 100
CCNC(=O)c1ccc2c(c1)nc(-c1ccc(Cl)cc1)n2-c1cc(C(C)(C)C)[nH]n1 | 4.53 | 18.2 | 3.14 | > 100 | 3.54 | 14.4 | 3.53 | 12.5 | 2.82 | 11.6 | 2.78 | 11.7 | 6.14 | 71.3 | 3.28 | 12.2 | 2.05 | 7.61 | 3.46 | 44.5
N#C/C(=C\c1ccc([N+](=O)[O-])s1)c1nc2cc(Br)ccc2s1 | 0.165 | 0.815 | 0.246 | 1.1 | 0.171 | 0.395 | 0.286 | 0.845 |  | > 100 | 0.346 | > 100 | 0.918 | > 100 | 0.298 | 0.986 |  |  | 0.142 | 0.461
